Converted amounts (≈) assume the structure as drawn. Read-outs that look alike come from different tables or passages of the source.
Key:
[1] = tested on: mouse leukemia P388 cells; assay: In vivo antitumor effects against mouse leukemia P388 cells in BDF1 mice; settings: P388, ip, abdominal cavity
Method: In vivo antitumor effects against mouse leukemia P388 cells.
1) Leukemia P388 cells being transfer-cultured successively in DBA/2 mouse, were grafted into each mouse of a group comprising 8 mice of 6 week old BDF1 mouse with the dose of 1×10^6 cells/0.1 ml. […]
3) With observation everyday, survival times of tested mice were measured. Antitumor activities was determined in such a manner that the increasing ratio(T/C%) of average survival days of drug-treated groups compared with the control group was calculated using the mean survival times of each tested groups.

[2] = Acute toxicity test (LD50), Litchfield-Wilcoxon method; settings: mouse, in vivo, ip, male ICR mice, 14 days
Method: Acute toxicity test (LD50): Litchfield-Wilcoxon method.
6 weeks old ICR mice(male 30±2.0 g) were fed freely with solid feed and water at room temperature, 23±1° C. and at humidity 60±5%. Sample drugs were injected into the abdominal cavities of mice, while each group comprises 6 mice. Observed during 14 days, external appearances and life or dead were recorded, and then, visible pathogenies were observed from dead animals by dissection. LD50 value was calculated by Litchfiled-wilcoxon method.

HCT-15 (human colon) = assay: SRB assay, in vitro antitumor effect against HCT-15; type: cell-based; settings: Homo sapiens; HCT 15, 48 hours; read-out: ED50 (the source's name)
Method: (§1) In vitro antitumor effect against human tumor cell lines.
(§2) b. 5×10^3 ~2×10^4 cells were added into each well of 96-well plate and cultured in 5% CO2 incubator, at 37° C., for 24 hours.
(§3) c. Each sample drug was dissolved in a little DMSO and diluted with the used medium to a prescribed concentration for experiments, wherein the final concentration of DMSO was controlled below 0.5%.
(§4) d. Medium of each well cultured for 24 hours as above b. was removed by aspiration. Each 200 μl of drug samples prepared in c. was added into each well and the wells were cultured for 48 hours. Tz(time zero) plates were collected at the point of time drugs were added.
(§5) e. According to the SRB assay method, cell fixing with TCA, staining with 0.4% SRB solution, washing with 1% acetic acid and elution of dye with 10 mM Tris solution were carried out on Tz plates and culture-ended plates, and then, OD values were measured at 520 nm.
(§6) a. Time zero(Tz) value was determined with measuring the SRB protein value at the point of time drugs were added.
(§7) b. Control value(C) was determined with the OD value of an well untreated with drug.
(§8) c. Drug-treated test value(T) was determined with the OD value of drug-treated well.
(§9) d. Effects of drugs were estimated with growth stimulation, net growth inhibition, net killing etc. calculated from Tz, C and T.
(§10) e. If T≥Tz, cellular response function was calculated by 100×(T-Tz)/(C-Tz), and if T<Tz, by 100×(T-Tz)/Tz.

XF 498 (human CNS) = assay: SRB assay, in vitro antitumor effect against XF 498; type: cell-based; settings: Homo sapiens, XF498; XF-498, 48 hours; read-out: ED50 (the source's name)
Method: as §1, §2, §3, §4, §5, §6, §7, §8, §9, §10

SKMEL-2 (human melanoma) = assay: SRB assay, in vitro antitumor effect against SKMEL-2; type: cell-based; settings: Homo sapiens; SK-MEL-2, 48 hours; read-out: ED50 (the source's name)
Method: as §1, §2, §3, §4, §5, §6, §7, §8, §9, §10

[3] = tested on: A549 (human non-small lung cell); assay: SRB assay, in vitro antitumor effect against A549; type: cell-based; settings: Homo sapiens; A549, 48 hours; read-out: ED50 (the source's name)
Method: as §1, §2, §3, §4, §5, §6, §7, §8, §9, §10

SKOV-3 (human ovarian) = assay: SRB assay, in vitro antitumor effect against SKOV-3; type: cell-based; settings: Homo sapiens; SK-OV-3, 48 hours; read-out: ED50 (the source's name)
Method: as §1, §2, §3, §4, §5, §6, §7, §8, §9, §10

[4] = on days 1, 5, 9, read-out: T/C(%)
[5] = nine everyday, read-out: T/C(%)
[6] = on days 1, 4, 8, read-out: T/C(%)

| SMILES | LD50 at 336 h [2] [mg/kg] | IC50 (HCT-15 (human colon)) [µg/mL] | IC50 (XF 498 (human CNS)) [µg/mL] | IC50 (SKMEL-2 (human melanoma)) [µg/mL] | response vs control in vivo at 25 mg/kg [1, 5] [%] | IC50 [3] [µg/mL] | IC50 (SKOV-3 (human ovarian)) [µg/mL] | response vs control in vivo at 50 mg/kg [1, 5] [%] | also measured |
| --- | --- | --- | --- | --- | --- | --- | --- | --- | --- |
| CCCc1cc(NC(=O)N2CCN(c3cc(OC)cc(OC)c3)CC2)c(OC)nc1C [Example 8, 1-[(2-Methoxy-6-methyl-5-propylpyridin-3-yl)aminocarbonyl]-4-(3,5-dimethoxyphenyl)piperazine] | 707 | – | – | – | – | – | – | – | response vs control in vivo at 100 mg/kg [1, 4]: 104%; response vs control in vivo at 200 mg/kg [1, 4]: 141% |
| CCc1nc(OC)c(NC(=O)N2CCN(c3cc(OC)cc(OC)c3)CC2)cc1C [Example 12, 1-[(6-Ethyl-2-methoxy-5-methylpyridin-3-yl)aminocarbonyl]-4-(3,5-dimethoxyphenyl)piperazine] | 165 | – | – | – | – | – | – | – | – |
| CCc1nc(OC)c(NC(=O)N2CCN(c3cc(C)cc(C)c3)CC2)cc1C [Example 13, 1-[(6-Ethyl-2-methoxy-5-methylpyridin-3-yl)aminocarbonyl]-4-(3,5-dimethylphenyl)piperazine] | 285 | – | – | – | – | – | – | – | – |
| CCCc1nc(OC)c(NC(=O)N2CCN(c3cc(OC)cc(OC)c3)CC2)cc1C [Example 15, 1-[(2-Methoxy-5-methyl-6-propylpyridin-3-yl)aminocarbonyl]-4-(3,5-dimethoxyphenyl)piperazine] | 190 | 0.038 (≈ 0.0887 µM) | 0.035 (≈ 0.0817 µM) | 0.052 (≈ 0.121 µM) | 150 | 0.002 (≈ 0.00467 µM) | 0.05 (≈ 0.117 µM) | – | response vs control in vivo at 10 mg/kg [1, 5]: 110% |
| CCCc1nc(OC)c(NC(=O)N2CCN(c3cc(C)cc(C)c3)CC2)cc1C [Example 16, 1-[(2-Methoxy-5-methyl-6-propylpyridin-3-yl)aminocarbonyl]-4-(3,5-dimethylphenyl)piperazine] | 283 | 0.061 (≈ 0.154 µM) | 0.005 (≈ 0.0126 µM) | 0.038 (≈ 0.0958 µM) | 110 | 0.008 (≈ 0.0202 µM) | 0.04 (≈ 0.101 µM) | 165 | – |
| COc1nc(C)c(C)cc1NC(=S)N1CCN(c2cc(C)cc(C)c2)CC1 [Example 22, 1-[(5,6-Dimethyl-2-methoxypyridin-3-yl)aminothiocarbonyl]-4-(3,5-dimethylphenyl)piperazine] | > 2000 | 0.01 (≈ 0.026 µM) | 0.0053 (≈ 0.0138 µM) | 0.027 (≈ 0.0702 µM) | 110 | 0.0009 (≈ 0.00234 µM) | 0.006 (≈ 0.0156 µM) | 140 | response vs control in vivo at 100 mg/kg [1, 5]: 150% |
| CCCc1nc(OC)c(NC(=S)N2CCN(c3cccc(O)c3)CC2)cc1C [Example 28, 1-[(2-Methoxy-5-methyl-6-propylpyndin-3-yl)aminothiocarbonyl]-4-(3-hydroxyphenyl)piperazine] | > 2000 | 0.05 (≈ 0.125 µM) | 0.41 (≈ 1.02 µM) | 0.001 (≈ 0.0025 µM) | – | 0.06 (≈ 0.15 µM) | 0.07 (≈ 0.175 µM) | – | – |
| COc1cc(OC)cc(N2CCN(C(=O)Nc3cc(C(C)O)c(C)nc3OC)CC2)c1 (stereo not shown) [Example 56, 1-{[5-(1-Hydroxyethyl)-2-methoxy-6-methylpyridin-3-yl]aminocarbonyl}-4-(3,5-dimethoxyphenyl)piperazine] | 410 | 0.045 (≈ 0.105 µM) | 0.013 (≈ 0.0302 µM) | 0.01 (≈ 0.0232 µM) | 145 | 0.017 (≈ 0.0395 µM) | 0.0027 (≈ 0.00627 µM) | 165 | response vs control in vivo at 10 mg/kg [1, 5]: 140%; response vs control in vivo at 50 mg/kg [1, 4]: 118%; response vs control in vivo at 100 mg/kg [1, 4]: 141%; response vs control in vivo at 200 mg/kg [1, 4]: 227% |
| COc1nc(C)c(C(C)O)cc1NC(=O)N1CCN(c2cc(C)cc(C)c2)CC1 (stereo not shown) [Example 57, 1-{[5-(1-Hydroxyethyl)-2-methoxy-6-methylpyridin-3-yl]aminocarbonyl}-4-(3,5-dimethylphenyl)piperazine] | 455 | 0.25 (≈ 0.627 µM) | 0.22 (≈ 0.552 µM) | 0.18 (≈ 0.452 µM) | – | 0.27 (≈ 0.678 µM) | 0.15 (≈ 0.376 µM) | – | – |
| COc1cc(OC)cc(N2CCN(C(=O)N(C)c3cc4ccccc4nc3OC)CC2)c1 [Example 98, 1-[N-(2-Methoxyquinolin-3-yl)-N-methylaminocarbonyl]-4-(3,5-dimethoxyphenyl)piperazine] | – | – | – | – | 110 | – | – | 110 | response vs control in vivo at 100 mg/kg [1, 5]: 150% |
| COc1nc(C)c(C)cc1N(C)C(=O)N1CCN(c2cc(C)cc(C)c2)CC1 [Example 135, 1-[N-(5,6-Dimethyl-2-methoxypyridin-3-yl)-N-methylaminocarbonyl]-4-(3,5-dimethylphenyl)piperazine] | – | 0.066 (≈ 0.173 µM) | 0.06 (≈ 0.157 µM) | 0.102 (≈ 0.267 µM) | 100 | 0.056 (≈ 0.146 µM) | 0.092 (≈ 0.241 µM) | 110 | response vs control in vivo at 100 mg/kg [1, 5]: 150% |
| CCc1cc(N(C)C(=O)N2CCN(c3cc(C)cc(C)c3)CC2)c(OC)nc1C [Example 144, 1-[N-(5-Ethyl-2-methoxy-6-methylpyridin-3-yl)-N-methylaminocarbonyl]-4-(3,5-dimethylphenyl)piperazine] | – | – | – | – | – | – | – | 110 | response vs control in vivo at 100 mg/kg [1, 5]: 110%; response vs control in vivo at 200 mg/kg [1, 5]: 125% |
| COc1cc(C)c(C)cc1NC(=O)N1CCN(c2ccccc2)CC1 [Example 170, 1-[(4,5-Dimethyl-2-methoxyphenyl)aminocarbonyl]-4-phenylpiperzine] | 573 | – | – | – | – | – | – | – | – |
| COc1cc(OC)cc(N2CCN(C(=O)Nc3cc(C)c(C)cc3OC)CC2)c1 [Example 171, 1-[(4,5-Dimethyl-2-methoxyphenyl)aminocarbonyl]-4-(3,5-dimethoxyphenyl)piperazine] | – | 0.00181 (≈ 0.00453 µM) | 0.000572 (≈ 0.00143 µM) | 0.00323 (≈ 0.00809 µM) | – | 0.000645 (≈ 0.00161 µM) | 0.00372 (≈ 0.00931 µM) | – | response vs control in vivo at 25 mg/kg [1, 6]: 100%; response vs control in vivo at 50 mg/kg [1, 6]: 100%; response vs control in vivo at 100 mg/kg [1, 6]: 140% |
| COc1cc(C)c(C)cc1NC(=O)N1CCN(c2cccc(OC(C)=O)c2)CC1 [Example 182, 1-[(4,5-Dimethyl-2-methoxyphenyl)aminocarbonyl]-4-(3-acetoxyphenyl)piperazine] | 348 | – | – | – | – | – | – | – | – |
| COc1ccc(C)c(N2CCN(C(=O)Nc3cc(C)c(C)cc3OC)CC2)c1 [Example 184, 1-[(4,5-Dimethyl-2-methoxyphenyl)aminocarbonyl]-4-(5-methoxy-2-methylphenyl)piperazine] | 309 | 0.2 (≈ 0.522 µM) | 0.12 (≈ 0.313 µM) | 0.17 (≈ 0.443 µM) | – | 0.28 (≈ 0.73 µM) | 0.34 (≈ 0.887 µM) | – | – |
| COc1cc(C)c(C)cc1NC(=O)N1CCN(c2cc(-c3ccccc3)ccc2OC)CC1 [Example 186, 1-[(4,5-Dimethyl-2-methoxyphenyl)aminocarbonyl]-4-(2-methoxy-5-phenylphenyl)piperazine] | > 2000 | – | – | – | – | – | – | – | – |
| C=C(C)c1ccccc1N1CCN(C(=O)Nc2cc(C)c(C)cc2OC)CC1 [Example 187, 1-[(4,5-Dimethyl-2-methoxyphenyl)aminocarbonyl]-4-(2-isopropenylphenyl)piperazine] | 418 | – | – | – | – | – | – | – | – |
| COc1cc(C)c(C)cc1NC(=S)N1CCN(c2cccc(O)c2)CC1 [Example 206, 1-[(4,5-Dimethyl-2-methoxyphenyl)aminothiocarbonyl]-4-(3-hydroxyphenyl)piperazine] | – | 0.38 (≈ 1.02 µM) | 0.7 (≈ 1.88 µM) | 0.52 (≈ 1.4 µM) | – | 0.47 (≈ 1.27 µM) | 0.54 (≈ 1.45 µM) | – | – |

Reference: patent publication US6028195A, “Piperazine derivatives and process for the preparation thereof” (Samjin Pharmaceutical Co., Ltd., priority 1996, dated 2000)
